Values joined by “and” are separate entries in the source; they are usually repeats but may differ in a detail not shown here. Equal entries are not always repeated.
What was measured:
5-HT6 receptor [1] = target: T1, 5-HT6 receptor (Homo sapiens, UniProt P50406); assay: Radioligand binding assay for 5-HT6 receptor ([3H]-LSD displacement); parameters: expressed in transfected cells; host or cells: HEK-293 (cryopreserved membranes); details: for Ki: competitive replacement of [3H]-LSD, ±S.E.M., read-out: 5-HT6R Ki
T1 sequence (P50406 whole entry): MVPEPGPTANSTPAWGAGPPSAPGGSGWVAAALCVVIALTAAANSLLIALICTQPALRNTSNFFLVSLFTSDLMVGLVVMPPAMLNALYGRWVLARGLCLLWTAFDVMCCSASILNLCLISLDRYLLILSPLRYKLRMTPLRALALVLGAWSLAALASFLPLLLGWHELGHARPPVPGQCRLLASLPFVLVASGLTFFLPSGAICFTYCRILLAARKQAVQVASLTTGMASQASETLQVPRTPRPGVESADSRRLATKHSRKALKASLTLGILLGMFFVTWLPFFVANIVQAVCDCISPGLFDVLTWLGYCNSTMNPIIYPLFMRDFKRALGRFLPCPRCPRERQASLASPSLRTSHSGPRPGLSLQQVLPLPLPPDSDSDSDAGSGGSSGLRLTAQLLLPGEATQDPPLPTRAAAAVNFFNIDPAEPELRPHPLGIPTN
Protocol: To determine the affinity for 5-HT6, the cryopreserved membranes from HEK-293 cells stably transfected with the human recombinant 5-HT6 receptor were used.[40] Preparation of the tested compounds included preparation of stock solutions in DMSO (1 mM) and subsequent serial dilutions (10^–10–10^–5 M) of tested compounds in the appropriate buffer (50 mM Tris buffer, pH 7.4, 10 mM MgCl2, 0.5 mM ethylenediaminetetraacetic acid). The serial dilutions were acquired directly on a 96-well microplate. The reaction mix included 50 μL of appropriate concentration of tested molecule, 50 μL of [^3H]LSD 2.5/2.0 nM, and 150 μL of diluted membranes. The microplate containing the reaction mix was protected with a sealing tape and incubated for 60 min at 37 °C. Quenching of the reaction mixtire included: rapid filtration through UniFilter 96 GF/B filter microplate and rapid washes using 200 μL 50 mM assay buffer and vacuum manifold and 96-well pipettor. The collected microplates were dried overnight at 37 °C. The UniFilter bottoms were sealed, and then 30 μL of Betaplate Scint liquid scintillator (PerkinElmer) was added to each well. […] The obtained data were fit to a one-site curve-fitting equation using Prism 5 software (GraphPad Software), and the Ki values were determined using the Cheng–Prusoff equation. Radioligand binding was performed in duplicates.

5-HT6 receptor [2] = target: T1, 5-HT6 receptor; assay: Functional assay for 5-HT6 receptor, antagonist mode (aequorin, CHO-K1 cells); type: cell-based; parameters: expressed in transfected cells; host or cells: CHO-K1 (co-expressing mitochondrially targeted aequorin and G protein α16); details: ±S.E.M., read-out: 5-HT6 R KB
Protocol: The studies were acquired according to previous protocols.[41] All the examined compounds (novel and the reference) were dissolved in DMSO (1 mM) and diluted accordingly using the assay buffer, directly in 96-well microplate. The recombinant CHO-K1 cells expressing human GPCR, mitochondrially targeted aequorin, and the promiscuous G protein α16 specific for 5-HT6 were used for the functional assay. The cells were thawed and suspended in the appropriate buffer containing DMEM/HAM’s F12 with 0.1% protease free BSA and were then centrifuged. After adding coelenterazine h to a final concentration of 5 μM, the cell pellet was resuspended in the buffer. The cell suspension was incubated at 16 °C for 16 h while being protected from light, gently shaken, and diluted with assay buffer to a concentration of 5000 cells/mL. Following that, 50 μL of the cell suspension was introduced to preloaded white opaque 96-well microplates containing the tested molecules. This was done using the automatic injectors integrated into the radiometric and luminescence plate counter MicroBeta2 LumiJET (PerkinElmer, USA). The light emission resulting from calcium mobilization was monitored for a duration of 60 s. For examination of the antagonistic properties of tested molecule, following 30 min of incubation, the reference agonist was administrated and the light emission was detected.

[3] = target: muscimol site of the GABA-A receptor; assay: Radioligand binding assay for GABA-A receptor ([3H]muscimol displacement, rat brain homogenate); details: competitive replacement of [3H]muscimol; ±S.E.M.
Protocol: The study was acquired according to the earlier protocols.[39] The rats’ brains were homogenized and prepared accurately according to the previous protocol.[39] On the day of the study, brain homogenates were thawed at room temperature and “diluted” in 20 volumes of ice-cold 50 mM Tris-HCl buffer (pH 7.4) and centrifuged (20.000g, 30 min, 0–4 °C). The assay was performed directly on 96-well microplates, which contained 50 mM Tris-HCl buffer (pH 7.4) in a total volume of 300 μL. Reaction mix included 240 μL of the brain tissue suspension, 30 μL of [^3H]-muscimol, and 30 μL solution of tested compounds (administrated at various concentrations: 10^–10–10^–5 M). […] The 96-well microplates containing the reaction mix were incubated for 10 min at 0 °C, followed by rapid filtration over glass fiber filters FilterMate B (PerkinElmer, USA) using the Harvester-96 MACH III FM (Tomtec, USA). The filter mats were dried using a microwave and then placed inside a plastic bag (PerkinElmer, USA). After that, they were soaked in 10 mL of Ultima Gold MV liquid scintillation cocktail (PerkinElmer, USA). […] Ki values were estimated according to the Cheng and Prusoff equation. The study was performed in duplicates. The statistical analysis was performed using (GraphPad Prism, version 4.0, San Diego, CA, USA).

[4] = system: human α1β2γ2-GABA-A receptors; assay: Electrophysiological studies, automated patch clamp (QPatch16X), HEK293 cells; type: cell-based; details: agonist mode, compound at 10 μM; current amplitude normalized to 10 μM GABA response; ±S.E.M.
Protocol: Electrophysiological studies were acquired using the QPatch16X automatic patch clamp platform (Sophion Biosciences) as described before.[42],[43] […] Before the assay, cells were detached from the culture flask by treating them with TrypLE Express solution (Life Technologies) and subsequently suspended in serum-free media. The cells were loaded into a 1.5 mL microtube on the automated electrophysiology instrument, which subsequently performed a spin-down using its built-in centrifuge. Following this, the cells were washed with Ringer’s extracellular solution. The cells were moved to the pipetting wells of a 16-channel planar patch chip plate (QPlate 16X) designed for single-use. A combined suction/voltage protocol was then applied to establish gigaseals. […] During the entire whole-cell recording, the holding potential was maintained at −90 mV. […] The intracellular solution contained 140 mM CsF, 1 mM EGTA, 5 mM CsOH, 10 mM HEPES, 20 mMNaCl (pH 7.2, 320 mOsm). […] The acquired data were examined with QPatch assay software (v5.0, Sophion Biosciences)[44] and are represented as the mean of three separated measurements performed on distinct cells. The efficacy of the tested molecules was determined by calculating the baseline-corrected ratio of the maximum current amplitudes elicited by the tested compounds and the reference agonist (T1-ATG/AG1-ATG or T2-ATG/AG1-ATG). The raw current recordings were standardized and presented as a percentage of the current amplitude evoked by the reference agonist, using the QPatch assay software (v5.0, Sophion Biosciences).

female Wistar rats [5] = assay: Forced swim test in rats; type: in vivo, rat
Protocol: (§1) Naïve female Wistar rats (weighing 180–200 g) were used in the study. The animals were housed in groups of three to four in standard Makrolon cages (37 cm × 21 cm × 15 cm) under strictly controlled laboratory conditions (ambient temperature 21–24 °C, relative humidity 45–65%) with a 12/12 h light–dark regime (light on at 6:00 a.m. and off at 6:00 p.m.). Animals had unrestricted access to tap water and food (typical pellets). Prior the experiment the animals were randomly appointed to the group. The behavioral studies were accomplished between 8:00 a.m. and 5:00 p.m. with the researcher blind to the study. The experiments were performed according to protocols approved by the Local Ethical Committee in Krakow (Approval Number 147/2018), Poland. Housing and experimental procedures were conducted under the European Union Directive of September 22, 2010 (2010/63/EU) and Polish legislation regarding animal studies. All efforts were made to minimize animal suffering and the number of animals used in the study.
(§2) Vortioxetine (Sigma, Germany) and the tested compounds (16 and 6) were dissolved in 10% cyclodextrin and administered ip 30 min before the test or during 14 consecutive days, with the last injection 60 min before the test. 10% cyclodextrin was administrated to control group.
(§3) A modified forced swim test was carried out according to Detke et al.[50],[51] First, the animals were individually placed inside Plexiglas cylinders, which were 40 cm high and 18 cm in diameter, filled with water at a temperature of 23–25 °C for 15 min. Afterward, the rats were transferred to a Plexiglas box and kept under a 60 W bulb for 30 min to dry. The day after, exactly 24 h later, the rats were once again placed in the cylinder, and their duration of immobility, swimming, and climbing was observed and recorded during a 5 min. The swimming behavior involved energetic movements such as horizontal swimming around the cylinder, while climbing activity referred to upward movements of the forepaws along the swim chamber’s side. Immobility was recorded when the rat only made necessary movements to keep its head above the water. For each test, a fresh water was provided. Open field test in rats: The test was conducted as previously reported by our research group.[52] The test was performed in a darkened room employing the Motor Monitor System (Campden Instruments, Ltd., U.K.). The system was equipped with two SmartFrame Open Field stations, each measuring 40 cm × 40 cm × 38 cm and consisting of 16 × 16 beams. These stations were placed inside sound-attenuating chambers and connected to a PC software using […]. The animals, belonging to either the vehicle-injected or drug-injected group, were individually positioned at the center of the station. The Motor Monitor System, which was automated, recorded the animal’s ambulation in both the X and Y axes, as well as the number of rearing and peeping episodes. Additionally, the total distance traveled by each animal during the 5 min test period was also recorded. Statistical analysis: Results are presented as the mean ± SEM values. They were estimated using one-way analysis of variance (ANOVA), followed by Newman–Keuls post hoc or unpaired two-tailed Student t test. Statistical significance was considered when p < 0.05 for differences between groups.

female Wistar rats [6] = assay: Open field test in rats (locomotor activity); type: in vivo, rat; parameters: total distance traveled: unit not given here; details: chronic treatment, dose 8, ip 14 days
Protocol: as §1, §2, §3

[7] = acute, 8 mg/kg ip 30 min before test

With `NCCCC(=O)OCCN1CCN(c2cccc3c2[nH]c(=O)n3Cc2ccccc2)CC1` [Compound 17, 1-(2-((4-Ammoniobutanoyl)oxy)ethyl)-4-(1-benzyl-2-oxo-2,3-dihydro-1H-benzo[d]imidazol-4-yl)piperazin-1-ium Dichloride] the Ki (5-HT6 receptor [1]) was 57 ± 5.9 nM, the Kb (5-HT6 receptor [2]) was 193 ± 3.5 nM and the Ki [3] was 592 ± 52.5 nM.

With `Cl.Cl.NCCCC(=O)OCCN1CCN(c2cccc3c2oc(=O)n3Cc2ccccc2)CC1` [Compound 18, 1-(2-((4-Ammoniobutanoyl)oxy)ethyl)-4-(3-benzyl-2-oxo-2,3-dihydrobenzo[d]oxazol-7-yl)piperazin-1-ium Dichloride] the “[%] of 10 μM GABA activity” value [4] was 14.0% and 14.0 ± 2.6%, the Ki (5-HT6 receptor [1]) was 130 ± 12 nM and the Kb (5-HT6 receptor [2]) was 245 ± 0.7 nM. It also gave a Ki [3] of 229 ± 28 nM.

For `Cl.Cl.NCCCC(=O)OCCN1CCN(c2cccc3c2OCC(=O)N3Cc2ccccc2)CC1` [Compound 19, 1-(2-((4-Ammoniobutanoyl)oxy)ethyl)-4-(4-benzyl-3-oxo-3,4-dihydro-2H-benzo[b][1,4]oxazin-8-yl)piperazin-1-ium Dichloride], the “[%] of 10 μM GABA activity” value [4] was 9.5% and 9.5 ± 3.5%, the Ki (5-HT6 receptor [1]) was 25 ± 1 nM and the “fold higher 5-HT6 affinity compared to 18” value (5-HT6 receptor [1]; ratio of Ki values) was 5 fold. For the same molecule, the Kb (5-HT6 receptor [2]) was 7 ± 0.1 nM and the Ki [3] was 247 ± 24.7 nM.

`NCCCC(=O)OCCN1CCN(c2cccc3c2OCCN3Cc2ccccc2)CC1` [Compound 20, 1-(2-((4-Ammoniobutanoyl)oxy)ethyl)-4-(4-benzyl-3,4-dihydro-2H-benzo[b][1,4]oxazin-8-yl)piperazin-1-ium Dichloride] gave a Ki (5-HT6 receptor [1]) of 1260 ± 82 nM, a Kb (5-HT6 receptor [2]) of 1670 ± 1 nM and a Ki [3] of 184 ± 4 nM.

With `Cc1ccc(Sc2ccccc2N2CCNCC2)c(C)c1` [vortioxetine, Vortioxetine, reference compound] the climbing (female Wistar rats [5]; [7]) was “had no impact”, the “prolongation of swimming time” value (female Wistar rats [5]; [7]) was 88.1% and the “reduction of immobility time” value (female Wistar rats [5]; [7]) was 24.7%. For the same molecule, the “decrease of immobility time vs vehicle-treated group” value (female Wistar rats [5]; subchronic, 8 mg/kg ip for 14 days, test 60 min after last injection) was 19.5%, the X ambulation (female Wistar rats [6]) was 260.1 and the Y ambulation (female Wistar rats [6]) was 265.9. The rearing (female Wistar rats [6]) was 50.6 and the total distance traveled (female Wistar rats [6]) was 2753.

Reference: publication PMC10119930, “Dual Molecules Targeting 5-HT6 and GABA-A Receptors as a New Approach to Combat Depression Associated with Neuroinflammation” (ACS Chemical Neuroscience, 2023)
